Test results published in US4296112A, “Cephalosporins” (Mitsui Toatsu Chemicals, Inc., priority 1979, dated 1981).
Values after ≈ are worked out from the molar mass of the structure shown.

Columns and labels:
[1] = Blood level in rats after intramuscular administration (Experimental Example 1, Table 3); assay type: in vivo; conditions: rat, im, 20 mg/kg i.m., serum, read-out: Blood level after administration (average value ± standard deviation); for concentration at 0.25 h: 15 minutes; for concentration at 0.5 h: 30 minutes; for concentration at 1 h: 60 minutes; for concentration at 2 h: 120 minutes
Protocol: The compounds of this invention prepared in Synthesis Examples 1 and 2 were each administered intramuscularly to rats, and the concentrations of the compounds in the blood were determined.
Each of the test compounds was intramuscularly injected into the femoral part of rats in a customary manner in a dose of 20 mg/kg for each rat. The blood was drawn by incising the cervical artery and vein at the end of 15 minutes, 30 minutes, 60 minutes, 120 minutes, and 240 minutes after the injection. The separated sera were used for the measurement of the blood level of the test compounds. The concentrations of the test compounds in the sera were determined by a thin-layer cup method using Micrococcus luteus ATCC 9341 as an assay microorganism.

[2] = tested on: Pseudomonas aeruginosa (NCTC 7244); assay: MIC in HIB medium by turbidity (Referential Example 2, Table 2); assay type: cell-based; conditions: NCTC7244, 18 h, 37° C.
Protocol: The compounds obtained in Synthesis Examples 1 to 4 were tested in the following manner.
A suspension of Pseudomonas aeruginosa (NCTC 7244) cultivated at 37° C. for 18 hours in a heart infusion broth medium (HIB medium) in a final amount of 10^5, 10^6 and 10^7 cells/ml in an HIB medium containing each of the test compounds which was obtained in the same way as in Referential Example 1 except that the maximum concentration of the test compound was 200 μg/ml. The bacterial strain was cultivated at 37° C. for 18 hours, and the turbidity of the culture broth was evaluated with the naked eye. The minimum concentration of the test compound at which no turbidity was noted was defined as MIC.

[3] = Acute toxicity (LD50) in mice, intravenous (Experimental Example 2); conditions: mouse, in vivo; ICR male mice, intravenous (tail), two weeks observation; estimated; read-out: 50% lethal dose (LD50)
Protocol: Each of the compounds was administered intravenously to the tail of each mouse in a customary manner in a dose of 500 mg/kg and 1000 mg/kg, and over two weeks from then, the states of the mice were observed. It was consequently estimated that the LD50 values of each of these compounds was at least 1000 mg/kg.

CC(=O)OCC1=C(C(=O)O)N2C(=O)C(NC(=O)[C@H](NC(=O)c3cnc4c(c3O)C(=O)CCC4)c3ccc(O)cc3)C2SC1 (single isomer, unassigned) [Synthesis Example 1, 7-[D-(-)-α-(4-hydroxy-5-oxo-5,6,7,8-tetrahydroquinoline-3-carboxamide)-α-(4-hydroxyphenyl)acetamido]-3-acetoxymethyl-Δ^3-cephem-4-carboxylic acid]
concentration at 0.25 h [1]: 14000 ± 2200 ng/mL | concentration at 0.5 h [1]: 9800 ± 3100 ng/mL | concentration at 1 h [1]: 6800 ± 2200 ng/mL | concentration at 2 h [1]: 2200 ± 1000 ng/mL | MIC ([2]; 10^5 cells/ml inoculated): 12.5 µg/mL (≈ 20.5 µM) | MIC ([2]; 10^6 cells/ml inoculated): 12.5 µg/mL (≈ 20.5 µM) | MIC ([2]; 10^7 cells/ml inoculated): 25 µg/mL (≈ 40.9 µM) | LD50 at 336 h [3]: ≥ 1000 mg/kg

Cc1nnc(SCC2=C(C(=O)O)N3C(=O)C(NC(=O)[C@H](NC(=O)c4cnc5c(c4O)C(=O)CCC5)c4ccc(O)cc4)C3SC2)s1 (single isomer, unassigned) [Synthesis Example 2]
concentration at 0.25 h [1]: 22800 ± 2600 ng/mL | concentration at 0.5 h [1]: 16100 ± 3000 ng/mL | concentration at 1 h [1]: 7600 ± 1800 ng/mL | concentration at 2 h [1]: 2500 ± 1200 ng/mL | MIC ([2]; 10^5 cells/ml inoculated): 12.5 µg/mL (≈ 18.3 µM) | MIC ([2]; 10^6 cells/ml inoculated): 12.5 µg/mL (≈ 18.3 µM) | MIC ([2]; 10^7 cells/ml inoculated): > 200 µg/mL | LD50 at 336 h [3]: ≥ 1000 mg/kg
